Laboratory results as given in US20190000983A1, “AN EYE DROP SOLUTION FOR ENHANCED HYALURONIC ACID RETENTION AND DELIVERY” (THE JOHNS HOPKINS UNIVERSITY, priority 2015, published 2019).
Like-named read-outs stand apart in the source and are kept apart here. Ends that are not written are not given here.

Tests used:
[1] = tested on: rabbit conjunctiva tissue sections (sialic acid on mucin-1; collagen type I); conditions: for localisation of peptide staining on conjunctiva sections: biotin-conjugated peptide 1.0 mg/ml, compared with anti-mucin-1 / anti-collagen type I antibody
Procedure: To visualize binding of SABpep and ColBpep to the ocular surface, we performed immunohistochemistry with biotin-conjugated peptides on tissue section of rabbit conjunctiva. Conjunctival tissue dissected from rabbit eyes were fixed with 4% paraformaldehyde (PFA) solution (Electron Microscopy Sciences, Hatfield, Pa.), embedded and sectioned (thickness-5 μm) in paraffin. The sections were first incubated with biotin-conjugated peptides (1.0 mg/ml in PBS pH 7.4) for 1 h at room temperature, washed thrice with PBS and then stained with streptavidin-Texas Red conjugate (Vector Laboratories, CA) in accordance to manufacturer's protocol. The samples were then washed again three times, mounted with DAPI mounting medium (Vector Laboratories) and imaged with Zeiss Axio Imager 2 microscope (Carl Zeiss, Jena, Germany). Sections stained with only secondary antibody served as negative control. Mouse anti-mucin-1 primary antibody (Novus Biologicals, Littleton, Colo.) and mouse anti-collagen type I antibody (Abcam, Cambridge, Mass.) were used as replacements to SABpep and ColBpep in the positive controls, respectively, and stained with goat anti-mouse IgG secondary antibody (Life Technologies, NY).
To examine if SABpep binds specifically to sialic acid segment on the oligosaccharide chains, paraffin embedded and 4% PFA fixed rabbit conjunctiva tissue sections were stained with three different groups were selected (SABpep, sialidase treated+SABpep, SA+SABpep). Sections in the first group were stained with SABpep as described in the main text; sections in the second group were treated with sialidase (α2-3,6,8 Neuraminidase, 60 U/ml; New England Biolabs, Ipswich, Mass.) first for one hour at 37° C. before the addition of SABpep; and finally, sections in the third group were stained with SABpep pre-incubated with sialic acid (N-Acetylneuraminic acid, 100 mM; Carbosynth, Compton, Berkshire, UK) for one hour at room temperature. The staining procedure was the same in all three groups (streptavidin-fluorescein was used for detecting biotin conjugated SABpep; DAPI was used as counterstain for nuclei). The sections were imaged using Zeiss Axio Imager 2 microscope.

[2] = tested on: Rabbit conjunctival primary epithelial cells; experiment: Live/dead staining and AlamarBlue cytotoxicity assessment; format: cell-based; conditions: 1.0 mg/ml, 24 h; data not shown
Procedure: Rabbit conjunctival primary epithelial cells were isolated as described previously in the main text. Cells were seeded in 96 well microplates for AlamarBlue assays (Life Technologies, NY) and live/dead staining at a density of 10,000 cells/cm^2. Cells were allowed to grow to about 90% confluence before experiments were carried out. Three different concentrations of HA-FL were tested: 1.0 mg/ml, 100 μg/ml and 10 μg/ml. SABpep and ColBpep were added to the medium for 24 h with a concentration of 1.0 mg/ml. Calcein AM and ethidium homodimer-1 (EthD-1; Life Technologies, NY) were used as live/dead staining agents according manufacture's manual, and cells were imaged using Zeiss Axio Imager 2 microscope. AlamarBlue assay was performed with quadruplets for every group. After 2 h incubation, the absorbance values at 570 nm on a Synergy 2 microplate reader were recorded.

conjunctiva tissue = experiment: HABA assay: screening of biotin-conjugated ocular surface-binding peptides on conjunctival tissue; set-up: species or system rabbit; conditions: six peptides of Table 1, biotin-conjugated, 1.0 mg/mL in PBS, 20 min, compared to control
Text: Conjunctival tissue from the ocular surface was targeted to test the binding affinity of the multiple peptides. Conjunctiva was harvested from rabbit eyes (Pel-Freez Biologicals, Rogers, Ariz.) with the underlying tenon's capsule removed, and then cut into 6 mm pieces with a biopsy punch. The conjunctival epithelium was kept intact for testing SABpep, while the epithelium was scrapped off with a cell scraper for testing type I collagen-binding peptide (ColBpep). The tissue pieces were merged in the biotin-conjugated peptide solutions (1.0 mg/mL in PBS, pH 7.4; Life Technologies, NY) for 20 minutes and then washed three times with PBS to remove any unbound peptides. A HABA (4′-hydroxyazobenzene-2-carboxylic acid) assay (Life Technologies, NY) was used to measure the amount of bound peptide (biotin), per manufacturer's instructions. An aqueous solution of biotin (1.0 mg/mL) without peptides was used as a negative control.

GGSPYGRC (also: biotin, position not given here) [SABpep]
localisation of peptide staining on conjunctiva sections ([1]; 1 h, listed as SABpep-biotin): binds selectively to epithelial lining of conjunctiva | staining of epithelium after preincubation of peptide with sialic acid ([1]; sialic acid 100 mM, 1 h, room temperature): still stained the epithelium | binding to conjunctival epithelium after sialidase digestion of the section ([1]; sialidase 60 U/ml, 1 h at 37° C. before staining): could not bind to conjunctival epithelium | cytotoxicity to epithelial cells [2]: little to no cytotoxicity | amount of peptide bound to conjunctiva tissue (normalized to the dry weight) (conjunctiva tissue): the most promising candidates | amount of peptide bound to conjunctiva tissue (normalized to the dry weight) (conjunctiva tissue; listed as peptide 3): bound the most

SYIRIADTNIT [ColBpep]
localisation of peptide staining on conjunctiva sections ([1]; 1 h, listed as ColBpep-biotin): binds to any collagen I on the tissue | cytotoxicity to epithelial cells [2]: little to no cytotoxicity | amount of peptide bound to conjunctiva tissue (normalized to the dry weight) (conjunctiva tissue): the most promising candidates | amount of peptide bound to conjunctiva tissue (normalized to the dry weight) (conjunctiva tissue; listed as peptide 6): bound the most
